This is an account of results in patent publication US6432943B1, “Method for treating sexual dysfunction” (Eli Lilly and Company, priority 1997, dated 2002).

Structures are written as SMILES.

One data set concerns clinical subjects. The data set is described as follows: clinical observation of pupil response. Particulars: pupilary dialation was expected.
The next data set has as its system rats. The data set is described as follows: in vivo animal observation after overdose. Set-up: species or system rat.
Data set [1] concerns muscarinic cholinergic receptor. The following applies: results of pharmacological studies.
Data set [2] is described as follows: detection of radiolabelled compound in saliva. It counts as in vivo. On the procedure:
For example, in the treatment of adult humans, dosages of from about 0.25 to 50 mg, preferably from 1 to 30 mg, and most preferably 1 to 20 mg per day may be used. A once a day dosage is normally sufficient, although divided doses may be administered. For treatment of cognitive dysfunction, a dose range of from 1 to 30 mg, preferably 1 to 20 mg per day is suitable.

As for `Cc1cc2c(s1)Nc1ccccc1N=C2N1CCN(C)CC1`, the “pupil response in clinical subjects” value in the data set with clinical subjects is recorded as “pupilary constriction”. In addition, in the data set on rats, the “observation in rats exposed to an overdose” value is “significant salivation”. In data set [1], the “muscarinic cholinergic receptor activity” value is listed as “has muscarinic cholinergic receptor activity”.

`Cc1cc2c(s1)Nc1ccccc1N=C2N1CCN(C)CC1` [2-methyl-4-(4-methyl-1-piperazinyl)-10H-thieno-[2,3-b][1,5]benzodiazepine]: in data set [2], the detection in saliva entry is recorded as “can be detected in the saliva”.
